{"source": "patent US20050106171A1", "about": "“METHODS AND COMPOSITIONS FOR TREATING EPILEPSY” (priority 2003, published 2005)", "key": {"[1]": {"tested_on": "rats induced with cardiazol", "assay": "Anti-seizure effect of rats induced with cardiazol", "format": "in vivo, Wistar rats", "conditions": "day 7, cardiazol 70 mg/kg subcutaneous 30 minutes after last dose; dosed twice daily for 1 week; 20 rats per group", "from_the_text": "Cardiazol induces seizure activity through intensifying excitatory synaptic activity of the brain. At the appropriate dose, cardiazol induces epileptic bursts that occur spontaneously.\nAn equal number of female and male Wistar rats that were […], weighing 200-220 g were provided by the Chinese Academy of Military Medical Sciences, Beijing, China. The rats were divided into four groups, each containing 20 rats: the test group (AY), the control yeast group (NY), the positive control group (CK2) and negative control group (CK1). Each rat in the test, control yeast and negative control groups was administered twice daily 0.6 ml of the activated yeast composition, the control yeast composition, and saline, respectively, for 1 week. Each mouse in the positive group was administered twice daily 0.04 g/kg (body weight) of phenobarbital (dissolved in 0.6 ml saline) for 1 week.\nOn day 7, 30 minutes after administering the last dosage of the above compositions, each group was administered by subcutaneous injection 70 mg/kg (body weight) of cardiazol (prepared as a 5% cardiazol solution in saline). The number of seizures occurred, incubation time (time between completion of injection and first seizure) and life span after injection was recorded immediately thereafter as shown in Table 3."}, "[2]": {"tested_on": "electroshocked mice", "assay": "Anti-seizure effect on electroshocked mice", "format": "in vivo, Kunming mice", "conditions": "70 mice per group, dosed twice daily", "from_the_text": "Electrodes are placed at the ears of the mice to provide instant stimulation through a strong electric currency. An appropriate electric currency induces an excessive surge of electrical activity in the brain resulting in seizures to occur.\nKunming grade healthy mice, which were 50-70 days old, weighing 18-22 g, were provided by the Institute of Zoology, Chinese Academy of Sciences, Beijing, China. The electroshock device (model GJ-2, manufactured by Medical Instrument Factory, Zhejiang Medical University) was adjusted to an output frequency of 60 Hz and voltage of 125 V. An equal number of male and female mice were selected. The ears of the mice were covered with saturated saline soaked-cotton. The electrodes were then clipped onto the ears of the mice. The mice were electroshocked three times for 0.3 seconds at an interval of 10 seconds. Mice with seizure activity were then divided into four groups, each group containing 70 mice: the test group (AY), the control yeast group (NY), the positive control group (CK2) and negative control group (CK1). Each mouse in the test, control yeast and negative control groups was administered twice daily 0.4 ml of the activated yeast composition, the control yeast composition, and saline, respectively, for 1 week. Each mouse in the positive control group was administered twice daily 15 mg/kg of phenobarbital for 1 week.\nOn each day, the mice were electroshocked once for 0.3 seconds. The number of mice with seizure activity were monitored as illustrated in Table 2."}}, "data": [{"smiles": "CCC1(c2ccccc2)C(=O)NC(=O)NC1=O", "note": "[CK2, phenobarbital]", "values": [{"measurement": "incubation time (time between completion of injection and first seizure)", "setting": "[1]", "value": "7.23 ± 5.32", "unit": "min"}, {"measurement": "life span after injection", "setting": "[1]", "value": "22.76 ± 17.37", "unit": "min"}, {"measurement": "% mice anti-seizure", "setting": "[2]; Day 1", "value": 15.7, "unit": "%"}, {"measurement": "No. mice with seizure activity", "setting": "[2]; Day 1, intragastric, electroshocked once for 0.3 seconds each day", "value": 59}, {"measurement": "% mice anti-seizure", "setting": "[2]; Day 2", "value": 31.4, "unit": "%"}, {"measurement": "No. mice with seizure activity", "setting": "[2]; Day 2", "value": 48}, {"measurement": "% mice anti-seizure", "setting": "[2]; Day 3", "value": 20, "unit": "%"}, {"measurement": "No. mice with seizure activity", "setting": "[2]; Day 3", "value": 56}, {"measurement": "% mice anti-seizure", "setting": "[2]; Day 4", "value": 21.4, "unit": "%"}, {"measurement": "No. mice with seizure activity", "setting": "[2]; Day 4", "value": 55}, {"measurement": "% mice anti-seizure", "setting": "[2]; Day 5", "value": 17.1, "unit": "%"}, {"measurement": "No. mice with seizure activity", "setting": "[2]; Day 5", "value": 58}, {"measurement": "% mice anti-seizure", "setting": "[2]; Day 6", "value": 12.8, "unit": "%"}, {"measurement": "No. mice with seizure activity", "setting": "[2]; Day 6", "value": 61}, {"measurement": "% mice anti-seizure", "setting": "[2]; Day 7", "value": 12.9, "unit": "%"}, {"measurement": "No. mice with seizure activity", "setting": "[2]; Day 7", "value": 61}]}]}
